According to patent US9884063B2, “Amido-substituted azole compounds” (Bayer Pharma Aktiengesellschaft, priority 2014, dated 2018):
pIC50: −log10 of the molar value.

Tests used:
[1] = target: T1, TNKS2 (Homo sapiens, UniProt Q9H2K2); assay: Modified TNKS2 Assay 2 (auto-parsylation, [3H]-NAD+ SPA); assay type: biochemical; settings: 6 nM TNKS2, 96 well
T1 sequence (Q9H2K2 1-1166): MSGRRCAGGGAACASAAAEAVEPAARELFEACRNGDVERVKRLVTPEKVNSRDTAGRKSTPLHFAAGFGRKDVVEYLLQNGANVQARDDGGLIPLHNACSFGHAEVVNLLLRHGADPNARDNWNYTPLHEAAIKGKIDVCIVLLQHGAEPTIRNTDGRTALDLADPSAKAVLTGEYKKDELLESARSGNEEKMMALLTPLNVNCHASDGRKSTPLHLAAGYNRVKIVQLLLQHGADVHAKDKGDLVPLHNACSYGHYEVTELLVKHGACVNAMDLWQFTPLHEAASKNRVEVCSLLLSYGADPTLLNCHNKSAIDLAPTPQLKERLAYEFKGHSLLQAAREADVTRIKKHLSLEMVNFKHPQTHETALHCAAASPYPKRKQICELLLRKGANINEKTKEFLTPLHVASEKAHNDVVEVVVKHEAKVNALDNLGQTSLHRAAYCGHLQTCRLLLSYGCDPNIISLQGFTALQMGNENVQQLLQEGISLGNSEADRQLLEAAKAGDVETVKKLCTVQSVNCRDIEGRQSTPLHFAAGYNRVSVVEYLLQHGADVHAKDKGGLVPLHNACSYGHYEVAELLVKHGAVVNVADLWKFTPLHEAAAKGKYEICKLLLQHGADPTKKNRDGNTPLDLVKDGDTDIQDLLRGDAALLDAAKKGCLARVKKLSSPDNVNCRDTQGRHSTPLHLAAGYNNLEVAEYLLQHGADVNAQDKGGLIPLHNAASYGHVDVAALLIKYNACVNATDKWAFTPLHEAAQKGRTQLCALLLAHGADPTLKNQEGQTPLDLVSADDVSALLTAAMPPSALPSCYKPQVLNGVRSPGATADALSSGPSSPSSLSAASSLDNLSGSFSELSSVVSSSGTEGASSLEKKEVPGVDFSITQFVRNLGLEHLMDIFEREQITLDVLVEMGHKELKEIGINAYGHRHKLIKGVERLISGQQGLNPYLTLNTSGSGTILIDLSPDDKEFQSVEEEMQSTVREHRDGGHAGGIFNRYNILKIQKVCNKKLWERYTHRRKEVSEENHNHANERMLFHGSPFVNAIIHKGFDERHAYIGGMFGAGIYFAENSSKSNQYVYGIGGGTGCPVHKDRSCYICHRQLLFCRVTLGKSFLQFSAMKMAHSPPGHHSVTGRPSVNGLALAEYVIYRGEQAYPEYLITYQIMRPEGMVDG

[2] = system: wildtype Wnt signaling cascade; assay: HEK293 TOP Assay (Super TopFlash luciferase reporter, Wnt-3a stimulated); assay type: cell-based
Procedure, shortened: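 HEK293 cells stably carrying Super TopFlash (TOP) or FOP reporter, stimulated with recombinant human Wnt-3a (2500–5 ng/ml, two-fold steps). Both lines incubated in parallel with compound from 50 μM to 15 nM (3.16-fold) in CAFTY buffer pH 7.4 with 2 mM Ca2+ and 0.01% BSA; selectivity judged TOP vs FOP.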

[3] = Homo sapiens, HEK293, 16 h, HEK293 TOP reporter cell line, Wnt-3a at EC50, 16 hours incubation, compound dilution series 50 μM to 15 nM
[4] = Homo sapiens, HEK293, 16 h, HEK293 TOP reporter cells, Wnt3a at EC50, 16 hours, luciferase

Compound	pIC50 [1]	pIC50 ([2]; HEK293 TOP reporter cell line, Wnt-3a at EC50, 16 hours incubation, compound dilution series 50 μM to 15 nM)	pIC50 [2, 3]	pIC50 [2, 4]
CC(CN1CCOCC1)NC(=O)c1[nH]cnc1C(=O)Nc1ccc(NC(=O)c2ccc(F)cc2Cl)cc1 (single isomer, unassigned; enantiomer 2) [Example 270, N^4-{4-[(2-chloro-4-fluorobenzoyl)amino]phenyl}-N^5-[1-(morpholin-4-yl)propan-2-yl]-1H-imidazole-4,5-dicarboxamide (enantiomer 2)]	8.52	7.40	–	–
CNC(=O)c1nc[nH]c1C(=O)Nc1ccc(NC(=O)c2ccccc2)cc1 [Example 21, N^5-[4-(benzoylamino)phenyl]-N^4-methyl-1H-imidazole-4,5-dicarboxamide]	< 5.00	–	4.92	4.92
O=C(Nc1ccc(NC(=O)c2[nH]cnc2C(=O)N2CCOCC2)cc1)c1ccc(F)cc1Cl [Example 29, N-{4-[(2-chloro-4-fluorobenzoyl)amino]phenyl}-5-(morpholin-4-ylcarbonyl)-1H-imidazole-4-carboxamide]	5.72	–	5.41	5.41
O=C(Nc1ccc(NC(=O)c2[nH]cnc2C(=O)NCCN2CCCCC2)cc1)c1ccc(F)cc1Cl [Example 32, N^4-{4-[(2-chloro-4-fluorobenzoyl)amino]phenyl}-N^5-[2-(piperidin-1-yl)ethyl]-1H-imidazole-4,5-dicarboxamide]	9.52	–	7.70	7.70
CNC(=O)c1nc[nH]c1C(=O)Nc1ccc(NC(=O)c2c(Cl)cccc2C(F)(F)F)cc1 [Example 36, N^5-(4-{[2-chloro-6-(trifluoromethyl)benzoyl]amino}phenyl)-N^4-methyl-1H-imidazole-4,5-dicarboxamide]	< 5.00	–	5.21	5.21
CCc1ccccc1C(=O)Nc1ccc(NC(=O)c2[nH]cnc2C(=O)NC)cc1 [Example 39, N^5-{4-[(2-ethylbenzoyl)amino]phenyl}-N^4-methyl-1H-imidazole-4,5-dicarboxamide]	5.66	–	5.77	5.77
CN1CC2(C1)CN(C(=O)c1nc[nH]c1C(=O)Nc1ccc(NC(=O)c3ccc(F)cc3Cl)cc1)C2 [Example 46, N-{4-[(2-chloro-4-fluorobenzoyl)amino]phenyl}-4-[(6-methyl-2,6-diazaspiro[3.3]hept-2-yl)carbonyl]-1H-imidazole-5-carboxamide]	5.96	–	6.54	–
CS(=O)(=O)c1ccc(C(=O)Nc2ccc(NC(=O)c3[nH]cnc3C(=O)NCCN3CCCCC3)cc2)c(Cl)c1 [Example 53, N^5-(4-{[2-chloro-4-(methylsulfonyl)benzoyl]amino}phenyl)-N^4-[2-(piperidin-1-yl)ethyl]-1H-imidazole-4,5-dicarboxamide]	8.00	–	7.40	–
CNC(=O)c1nc[nH]c1C(=O)Nc1ccc(NC(=O)c2ccc(S(C)(=O)=O)cc2Cl)cc1 [Example 55, N^5-(4-{[2-chloro-4-(methylsulfonyl)benzoyl]amino}phenyl)-N^4-methyl-1H-imidazole-4,5-dicarboxamide]	7.15	–	6.57	–
CNC(=O)c1nc[nH]c1C(=O)Nc1ccc(NC(=O)c2ccc(F)cc2Br)cc1 [Example 56, N^5-{4-[(2-bromo-4-fluorobenzoyl)amino]phenyl}-N^4-methyl-1H-imidazole-4,5-dicarboxamide]	6.24	–	6.92	–
CNC(=O)c1nc[nH]c1C(=O)Nc1ccc(NC(=O)c2ccccc2OC)cc1 [Example 60, N^5-{4-[(2-methoxybenzoyl)amino]phenyl}-N^4-methyl-1H-imidazole-4,5-dicarboxamide]	< 5.00	–	4.81	–
CNC(=O)c1nc[nH]c1C(=O)Nc1ccc(NC(=O)c2ccc(F)cc2I)cc1 [Example 61, N^5-{4-[(4-fluoro-2-iodobenzoyl)amino]phenyl}-N^4-methyl-1H-imidazole-4,5-dicarboxamide]	7.22	–	7.00	–
O=C(Nc1ccc(NC(=O)c2[nH]cnc2C(=O)NCCN2CCCCC2)cc1)c1ccc(F)cc1I [Example 62, N^5-{4-[(4-fluoro-2-iodobenzoyl)amino]phenyl}-N^4-[2-(piperidin-1-yl)ethyl]-1H-imidazole-4,5-dicarboxamide]	6.51	–	8.00	–
CNC(=O)c1nc[nH]c1C(=O)Nc1ccc(NC(=O)c2cc(OC(F)(F)F)ccc2Br)cc1 [Example 64, N^5-(4-{[2-bromo-5-(trifluoromethoxy)benzoyl]amino}phenyl)-N^4-methyl-1H-imidazole-4,5-dicarboxamide]	< 5.00	–	5.84	–
Cc1nc(C(=O)Nc2ccc(NC(=O)c3ccc(F)cc3Cl)cc2)c(C(=O)NCCN(C)C)[nH]1 [Example 66, N^4-{4-[(2-chloro-4-fluorobenzoyl)amino]phenyl}-N^5-[2-(dimethylamino)ethyl]-2-methyl-1H-imidazole-4,5-dicarboxamide]	7.40	–	6.51	–
Cc1nc(C(=O)Nc2ccc(NC(=O)c3ccc(F)cc3Cl)cc2)c(C(=O)NCCN2CCCCC2)[nH]1 [Example 67, N^4-{4-[(2-chloro-4-fluorobenzoyl)amino]phenyl}-2-methyl-N^5-[2-(piperidin-1-yl)ethyl]-1H-imidazole-4,5-dicarboxamide]	7.52	–	7.15	–
CCc1nc(C(=O)Nc2ccc(NC(=O)c3ccc(F)cc3Cl)cc2)c(C(=O)NC)[nH]1 [Example 68, N^4-{4-[(2-chloro-4-fluorobenzoyl)amino]phenyl}-2-ethyl-N^5-methyl-1H-imidazole-4,5-dicarboxamide]	< 5.00	–	5.67	–

Next, values leading:

pIC50 [1]	pIC50 ([2]; HEK293 TOP reporter cell line, Wnt-3a at EC50, 16 hours incubation, compound dilution series 50 μM to 15 nM)	pIC50 [2, 3]	pIC50 [2, 4]	Compound
7.70	–	6.85	6.89	CN(C)CCNC(=O)c1nc[nH]c1C(=O)Nc1ccc(NC(=O)c2ccc(F)cc2Cl)cc1 [Example 22, N^4-{4-[(2-chloro-4-fluorobenzoyl)amino]phenyl}-N^5-[2-(dimethylamino)ethyl]-1H-imidazole-4,5-dicarboxamide]
< 5.00	–	5.64	–	O=C(Nc1ccc(NC(=O)c2[nH]cnc2C(=O)NCCC2CCCC2)cc1)c1ccc(F)cc1Cl [Example 42, N^5-{4-[(2-chloro-4-fluorobenzoyl)amino]phenyl}-N^4-(2-cyclopentylethyl)-1H-imidazole-4,5-dicarboxamide]
< 5.00	–	6.28	–	O=C(Nc1ccc(NC(=O)c2[nH]cnc2C(=O)NCCC2CC2)cc1)c1ccc(F)cc1Cl [Example 43, N^5-{4-[(2-chloro-4-fluorobenzoyl)amino]phenyl}-N^4-(2-cyclopropylethyl)-1H-imidazole-4,5-dicarboxamide]
< 5.00	–	5.58	–	O=C(Nc1ccc(NC(=O)c2[nH]cnc2C(=O)NCCC2CCCC2)cc1)c1cc(F)c(F)cc1Cl [Example 48, N^5-{4-[(2-chloro-4,5-difluorobenzoyl)amino]phenyl}-N^4-(2-cyclopentylethyl)-1H-imidazole-4,5-dicarboxamide]
7.30	–	6.85	–	O=C(Nc1ccc(NC(=O)c2[nH]cnc2C(=O)NC2CC2)cc1)c1cc(F)c(F)cc1Cl [Example 51, N^5-{4-[(2-chloro-4,5-difluorobenzoyl)amino]phenyl}-N^4-cyclopropyl-1H-imidazole-4,5-dicarboxamide]
6.66	–	6.21	–	O=C(Nc1ccc(NC(=O)c2[nH]cnc2C(=O)N2CC3(COC3)C2)cc1)c1cc(F)c(F)cc1Cl [Example 52, N-{4-[(2-chloro-4,5-difluorobenzoyl)amino]phenyl}-4-(2-oxa-6-azaspiro[3.3]hept-6-ylcarbonyl)-1H-imidazole-5-carboxamide]
6.96	–	6.47	–	COC(=O)c1nc[nH]c1C(=O)Nc1ccc(NC(=O)c2ccc(F)cc2Cl)c(F)c1 [Example 71, methyl 5-({4-[(2-chloro-4-fluorobenzoyl)amino]-3-fluorophenyl}carbamoyl)-1H-imidazole-4-carboxylate]
